What was measured:
[1] = clinical study in children with mild asthma: HPA function, cortisol in 12 h overnight urine; type: in vivo, human; conditions: 40, 80 and 160 μg once daily or placebo, 12 h overnight urine at end of each 2-week period
Protocol: (§1) The present study was conducted to determine the effects of ciclesonide at doses intended for the use in children on lower leg growth rate and HPA function in children with mild asthma.
(§2) METHODS: In a double blind, randomized, placebo-controlled, 4-period cross-over study, 24 children, 6 to 12 years of age, received ciclesonide 40, 80 and 160 μg or placebo via HFA-MDI once daily in the evening. Each 2-week treatment period was followed by a 2-week washout. Knemometry was performed at the beginning and the end of each treatment period. Cortisol levels in 12 h overnight urine were measured at the end of each treatment period.

[2] = clinical study in children with mild asthma: tolerability; type: in vivo, human; conditions: 40, 80 and 160 μg once daily, 2 weeks
Protocol: as §1, §2

[3] = cited from earlier work
[4] = cited from earlier work; remark: listed apart in the source
[5] = clinical study in children with mild asthma: lower leg growth rate by knemometry; type: in vivo, human; conditions: for lower leg growth rate: 2-week treatment, children 6 to 12 years, placebo 0.412 mm/week
Protocol: as §1, §2

[6] = 40, 80 and 160 μg once daily, 2 weeks

SMILES: CC(C)C(=O)OCC(=O)[C@@]12O[C@H](C3CCCCC3)O[C@@H]1C[C@H]1[C@@H]3CCC4=CC(=O)C=C[C@]4(C)[C@H]3[C@@H](O)C[C@@]12C [ciclesonide, [11β,16α(R)]-16,17-[(Cyclohexylmethylen)bis(oxy)]-11-hydroxy-21-(2-methyl-1-oxopropoxy)pregna-1,4-dien-3,20-dion]
- urinary free cortisol adjusted for creatinine, difference between treatments [1]: no difference
- tolerability [2]: well tolerated
- systemic activity ([3]; in vivo): low systemic activity
- anti-inflammatory activity compared with budesonide ([3]; relative to budesonide): higher
- systemic activity compared with budesonide ([3]; relative to budesonide): three times lower
- concentration of the drug in the lungs ([4]; in vivo): high
- metabolism by liver oxidases ([4]; in vivo): very high
- plasma half-life ([4]; in vivo): low plasma half-life
- absorption after oral administration ([4]; oral): only moderately absorbed
- lower leg growth rate ([5]; 40 μg once daily in the evening via HFA-MDI): 0.425 mm/week
- lower leg growth rate ([5]; 80 μg once daily in the evening via HFA-MDI): 0.397 mm/week
- lower leg growth rate ([5]; 160 μg once daily in the evening via HFA-MDI): 0.370 mm/week
- difference in lower-leg growth rates between ciclesonide treatments and placebo [5, 6]: No statistically significant differences
- dose-response effect on lower leg growth rate [5, 6]: no statistically significant dose-response effect

From patent publication US8371292B2, “Use of ciclesonide for the treatment of respiratory diseases” (Nycomed GmbH, priority 2003, dated 2013)
